This experiment relates to murine neural precursor cells (neurosphere cultures). Kind of experiment: HTS of LOPAC library against secondary neurosphere cultures, MTT proliferation assay at 3 μM, day 7 (z score, P value). The format is cell-based, mouse.
The mark [1] stands for this setting: LOPAC primary screen, neurosphere MTT proliferation, 3 μM, day 7.
Where [2] appears, read: yes/no: significantly inhibited neurosphere proliferation (P<0.01) in primary screen.
[3] abbreviates: LOPAC library screen at 3 μM, secondary neurosphere cultures, MTT.
Where [4] appears, read: LOPAC screen, neurosphere MTT proliferation, 3 μM, day 7.
Where [5] appears, read: LOPAC library screen, 3 μM, MTT, secondary neurosphere cultures, day 7.
The mark [6] stands for this setting: yes/no: significantly inhibited neurosphere proliferation in primary screen.
The mark [7] stands for this setting: yes = significantly inhibited neurosphere proliferation (P<0.01) in the primary screen.
Setting [8] is: LOPAC library screen, 3 μM, MTT, neurosphere cultures.
[9] abbreviates: yes/no: significantly inhibited neurosphere proliferation (P<0.01) in the primary screen.

Structures can show the parent of a compound that is named as a salt. Where two headings read alike, the source gives them in different places.

For `Cl.N[C@@H](CCC(=O)O)C(=O)O` [L-Glutamic acid hydrochloride], the “Z Score” value is on record as −0.4727. Further, under setting [1], the Z score is −0.473. For the same molecule, under setting [2], the Activity entry is “no”.
Regarding `CCCCS(=N)(=O)CCC(N)C(=O)O` (racemic) [DL-Buthionine-[S,R]-sulfoximine], the “Z Score” value under setting [3] is given as −1.022. Under setting [4], this molecule gave a Z score of −1.022. Also, the Activity entry under setting [2] was “no”.
Consider `Nc1ncnc2c1c(-c1ccc(Oc3ccccc3)cc1)cn2C1CCCC1`, for which the “Z Score” value is listed as −1.412. Besides, under setting [4], the Z score is reported as −1.412. Also, the Activity result under setting [2] is “no”.
As to `O=C1CC2(CCCC2)CC(=O)N1CCCCN1CCN(c2ncccn2)CC1` [Buspirone hydrochloride], the Activity result was “no”. Also, under “168 h, 3 µM”, the “Z Score” value is −1.775 and the Z score is on record as −1.775.
`Cl.Clc1cc(I)cc(Cl)c1NC1=NCCN1` [p-Iodoclonidine hydrochloride]: the “Z Score” value is reported as −0.1606. For the same molecule, the Z score under setting [1] was −0.161. For the same molecule, under setting [2], the Activity entry is listed as “no”.
`Cc1ccc(=O)n(-c2ccccc2)c1` [Pirfenidone]: under setting [5], the “Z Score” value is listed as −1.482. This molecule returned a Z score under setting [1] of −1.482. Moreover, under setting [6], the Activity entry is listed as “no”.
Regarding Foliosidine, the “Z Score” value is recorded as −0.0969. For the same molecule, the Z score under setting [1] is −0.097. The Activity entry under setting [2] is recorded as “no”.
In the case of `CNc1ncnc2c1ncn2[C@@H]1O[C@H](CO)[C@@H](O)[C@H]1O` [N6-Methyladenosine], under “168 h, 3 µM”, the “Z Score” value was determined as 0.7424 and the Z score came to 0.742. For the same molecule, under setting [7], the Activity result is “no”.
Take L-Hyoscyamine: the Activity entry was “no”, the “Z Score” value is recorded as −0.661 and the Z score is given as −0.661.
For the molecule `C[C@@]12C(=O)OC(=O)[C@]1(C)[C@H]1CC[C@@H]2O1` [Cantharidin], the “Z Score” value is −0.5781. The same molecule yielded a Z score under setting [4] of −0.578. Further, under setting [2], the Activity entry was “no”.
Regarding `O=C1CCC(N2C(=O)c3ccccc3C2=O)C(=O)N1` (stereo not drawn) [(B1)-Thalidomide], the “Z Score” value worked out at 0.521.
In the case of `N[C@@H](CS(=O)O)C(=O)O` [L-Cysteinesulfinic Acid], the “Z Score” value under setting [8] was 1.458. The Z score under setting [4] came to 1.458. Moreover, the Activity result under setting [2] was “no”.
For `Clc1ccc(C(c2ccccc2Cl)C(Cl)Cl)cc1` (stereo not drawn) [1-(2-Chlorophenyl)-1-(4-chlorophenyl)-2,2-dichloroethane], the “Z Score” value under setting [5] is given as −2.508. Besides, under setting [1], the Z score was −2.508. Further, under setting [7], the Activity result is recorded as “yes”.
`CCCCC1C(=O)N(c2ccccc2)N(c2ccccc2)C1=O` [Phenylbutazone]: the “Z Score” value under setting [8] is listed as 0.7902. Under setting [1], this molecule had a Z score of 0.790.
For `C/C=C1\C(=O)C[C@H]2[C@@H]3CCC4=CC(=O)CC[C@]4(C)[C@H]3CC[C@]12C` [(Z)-Gugglesterone], the “Z Score” value is 3.205. Further, under setting [4], the Z score was found to be 3.205. The Activity result under setting [2] is recorded as “no”.
On to `CC(C)(C)c1cc(C=C(C#N)C#N)cc(C(C)(C)C)c1O` [Tyrphostin A9], for which the “Z Score” value under setting [5] is given as −1.746. Also, the Z score (primary LOPAC screen, 3 μM, MTT, neurosphere proliferation) was −1.746. In addition, under “yes/no: significantly inhibited neurosphere proliferation in the primary screen”, the Activity entry is on record as “no”.
Take `NCCCP(=O)(O)O` [3-Aminopropylphosphonic acid]: the “Z Score” value is listed as −2.331. Also, the Z score under setting [1] is reported as −2.331. Further, the Activity result under setting [9] is reported as “yes”.
Turning to `Br.Cc1o[nH]c(=O)c1CC(N)C(=O)O` (stereo not drawn) [(B1)-AMPA hydrobromide], the “Z Score” value is reported as −0.4272.
As for `CCN(CC)CCNC(=O)c1ccc(N)cc1` [Procainamide hydrochloride], the “Z Score” value under setting [8] stood at 0.6535. The molecule also registered a Z score under setting [1] of 0.654. Besides, under setting [9], the Activity result was “no”.
Picrotoxin: the “Z Score” value was 0.7771. Further, the Z score under setting [1] is 0.777. Besides, the Activity result under setting [6] is on record as “no”.
For the molecule `O=C(O)c1nn(Cc2ccc(Cl)cc2Cl)c2ccccc12` [Lonidamine], the “Z Score” value under setting [8] is reported as 0.4358. For the same molecule, under setting [1], the Z score stood at 0.436. Also, under setting [2], the Activity entry is reported as “no”.
With `Nc1ncnc2c1ncn2C1CCCC1` [9-cyclopentyladenine], for the setting “168 h, 3 µM”, the “Z Score” value is listed as 0.4988 and the Z score was 0.499. For the same molecule, the Activity result under setting [2] was “no”.
For the molecule `NC(CCP(=O)(O)O)C(=O)O` (stereo not drawn) [(B1)-2-Amino-4-phosphonobutyric acid], the “Z Score” value is listed as 1.893.
For the molecule `CN1CCC(=C2c3ccccc3C=Cc3ccccc32)CC1` [Cyproheptadine hydrochloride], under “168 h, 3 µM”, the “Z Score” value is recorded as 1.232 and the Z score amounted to 1.232. Besides, under setting [2], the Activity entry was “no”.
Regarding `CC[C@@H](CO)NC(=O)[C@@H]1C=C2c3cccc4[nH]cc(c34)C[C@H]2N(C)C1` [Methylergonovine maleate], the “Z Score” value is given as −0.7846. Moreover, the Z score under setting [1] was −0.785. Under setting [7], the Activity result is “no”.
Turning to `CN1CCc2ccccc2Cc2[nH]c3ccccc3c2CC1` [LE 300], the Activity entry is on record as “no”, the “Z Score” value is listed as −1.07 and the Z score is reported as −1.070.
Consider `CNCC(O)c1ccc(O)c(O)c1.Cl` (stereo not drawn) [(B1)-Epinephrine hydrochloride], for which the “Z Score” value under setting [3] is −0.3279.
Turning to `NNC(N)=O` [Semicarbazide hydrochloride], the “Z Score” value is recorded as −1.405. Moreover, the Z score under setting [1] is listed as −1.405. In addition, the Activity entry under setting [6] is “no”.
With `CCCCCCC(C(C)O)n1cnc2c(N)ncnc21.Cl` (stereo not drawn), the “Z Score” value under setting [3] is given as −0.7656. Under setting [1], the Z score was −0.766. Also, the Activity result under setting [2] is reported as “no”.
In the case of `Cl.c1ccc2sc(C3(N4CCCCC4)CCCCC3)cc2c1` [BTCP hydrochloride], the “Z Score” value is recorded as 0.8361. The molecule further came in with a Z score under setting [1] of 0.836. Further, the Activity result under setting [7] is “no”.
The molecule `CC(COc1ccc(/C=C/c2ccccc2)cc1)[N+](C)(C)C` (stereo not drawn) came in with a Z score under setting [1] of −11.127. Also, the Activity result under setting [9] was “yes”.
For `Br.CN1CCc2cc(O)c(O)cc2C(c2ccccc2)C1` (stereo not drawn) [SKF 75670 hydrobromide], the “Z Score” value is reported as −0.1421. For the same molecule, under setting [1], the Z score was −0.142. Under setting [6], the Activity entry is recorded as “no”.
Take `Cc1ccccc1C(OCCN(C)C)c1ccccc1` (stereo not drawn) [Orphenadrine hydrochloride]: the “Z Score” value under setting [8] was 0.4548. The Z score under setting [1] turned out to be 0.455.
With `CNc1cc(NS(=O)(=O)c2ccc(N)cc2)nc(NC)n1.Cl.Cl` [Ro 04-6790 dihydrochloride], the “Z Score” value is on record as 0.3428. The Z score under setting [1] stood at 0.343. Further, the Activity result under setting [6] is “no”.
As to `O=C(NCC1CCCCN1)c1cc(OCC(F)(F)F)ccc1OCC(F)(F)F` (stereo not drawn) [Flecainide acetate], the “Z Score” value under setting [5] is on record as −1.498.
As for `CC12NC(Cc3ccccc31)c1ccccc12.O=C(O)/C=C\C(=O)O` (single isomer, unassigned; (+)) [(+)-MK-801 hydrogen maleate], the “Z Score” value is on record as −0.09805. Further, the Z score under setting [1] is −0.098. The Activity result under setting [7] is recorded as “no”.
`c1ccc2c(c1)OCC(C1=NCCN1)O2` (stereo not drawn) [Idazoxan hydrochloride]: the “Z Score” value under setting [5] is recorded as −1.448. The Z score under setting [1] is given as −1.448. Further, under setting [2], the Activity entry is recorded as “no”.
`O=C(O)/C=C\C(=O)O.O=[N+]([O-])c1ccc2nc(N3CCNCC3)ccc2c1` [Quipazine, 6-nitro-, maleate]: the “Z Score” value under setting [8] is 0.9782. This molecule also yielded a Z score under setting [1] of 0.978. Under setting [6], the Activity entry is “no”.
In the case of `CC(=O)OCC1=C(C(=O)O)N2C(=O)[C@@H](NC(=O)CSc3ccncc3)[C@H]2SC1` [Cephapirin sodium], the “Z Score” value under setting [8] was found to be 0.6219. The molecule further displayed a Z score under setting [1] of 0.622. Besides, under setting [9], the Activity entry is “no”.
As for `NCCCNCCSP(=O)(O)O` [Amifostine], for the setting “168 h, 3 µM”, the “Z Score” value worked out at 0.3592 and the Z score is 0.359. For the same molecule, the Activity entry under setting [7] is recorded as “no”.
For `O=C(O)CC[N+](=O)[O-]` [3-Nitropropionic acid], the “Z Score” value is on record as −0.5631. The same molecule yielded a Z score under setting [1] of −0.563. The Activity entry under setting [7] is recorded as “no”.
Regarding `CNCCC(Oc1ccc(C(F)(F)F)cc1)c1ccccc1` (stereo not drawn) [Fluoxetine hydrochloride], the Activity result is “no”. Also, the “Z Score” value under setting [5] is listed as −1.311. This molecule also registered a Z score under setting [1] of −1.311.
As to `CCc1cccc2c3c([nH]c12)C(CC)(CC(=O)O)OCC3` (stereo not drawn) [Etodolac], the “Z Score” value under setting [3] is on record as −0.5582. The Z score under setting [4] is −0.558. The Activity entry under setting [2] was “no”.
As to `Cc1nc2ccccn2c(=O)c1CCN1CCC(C(=O)c2ccc(F)cc2)CC1` [Pirenperone], the “Z Score” value under setting [8] is reported as 0.2279. Under setting [1], this molecule displayed a Z score of 0.228. In addition, the Activity result under setting [9] is on record as “no”.
`CC[C@H](CO)Nc1nc(NCc2ccccc2)c2ncn(C(C)C)c2n1` [Roscovitine]: the Activity result was “no”, the “Z Score” value was 0.00273 and the Z score came out at 0.003.
On to `N#CC(C#N)=C(N)/C(C#N)=C/c1ccc(O)cc1` [Tyrphostin AG 112], for which the “Z Score” value under setting [8] is on record as 0.3333. Under setting [1], this molecule displayed a Z score of 0.333. For the same molecule, the Activity result under setting [6] is “no”.
For `NC(CCCCCP(=O)(O)O)C(=O)O` (stereo not drawn) [(B1)-2-Amino-7-phosphonoheptanoic acid], the “Z Score” value was −1.02.
On to `Cl.Cl.NCCSSCCN` [Cystamine dihydrochloride], for which the “Z Score” value was 2.23. The same molecule returned a Z score under setting [4] of 2.230. In addition, the Activity result under setting [2] is listed as “no”.
Turning to `CNCC[C@H](Oc1ccc(C(F)(F)F)cc1)c1ccccc1.Cl` [S-(+)-Fluoxetine hydrochloride], the “Z Score” value under setting [3] is given as −0.8088. Under setting [1], this molecule displayed a Z score of −0.809. Further, the Activity entry under setting [2] is recorded as “no”.
